The results in this text go back to patent publication US11952344B2, “Heterocyclic compound and use thereof” (TAKEDA PHARMACEUTICAL COMPANY LIMITED, priority 2019, dated 2024).

SMILES strings stand for the structures.

T1 sequence (Q13224 27-1484, other chains not shown): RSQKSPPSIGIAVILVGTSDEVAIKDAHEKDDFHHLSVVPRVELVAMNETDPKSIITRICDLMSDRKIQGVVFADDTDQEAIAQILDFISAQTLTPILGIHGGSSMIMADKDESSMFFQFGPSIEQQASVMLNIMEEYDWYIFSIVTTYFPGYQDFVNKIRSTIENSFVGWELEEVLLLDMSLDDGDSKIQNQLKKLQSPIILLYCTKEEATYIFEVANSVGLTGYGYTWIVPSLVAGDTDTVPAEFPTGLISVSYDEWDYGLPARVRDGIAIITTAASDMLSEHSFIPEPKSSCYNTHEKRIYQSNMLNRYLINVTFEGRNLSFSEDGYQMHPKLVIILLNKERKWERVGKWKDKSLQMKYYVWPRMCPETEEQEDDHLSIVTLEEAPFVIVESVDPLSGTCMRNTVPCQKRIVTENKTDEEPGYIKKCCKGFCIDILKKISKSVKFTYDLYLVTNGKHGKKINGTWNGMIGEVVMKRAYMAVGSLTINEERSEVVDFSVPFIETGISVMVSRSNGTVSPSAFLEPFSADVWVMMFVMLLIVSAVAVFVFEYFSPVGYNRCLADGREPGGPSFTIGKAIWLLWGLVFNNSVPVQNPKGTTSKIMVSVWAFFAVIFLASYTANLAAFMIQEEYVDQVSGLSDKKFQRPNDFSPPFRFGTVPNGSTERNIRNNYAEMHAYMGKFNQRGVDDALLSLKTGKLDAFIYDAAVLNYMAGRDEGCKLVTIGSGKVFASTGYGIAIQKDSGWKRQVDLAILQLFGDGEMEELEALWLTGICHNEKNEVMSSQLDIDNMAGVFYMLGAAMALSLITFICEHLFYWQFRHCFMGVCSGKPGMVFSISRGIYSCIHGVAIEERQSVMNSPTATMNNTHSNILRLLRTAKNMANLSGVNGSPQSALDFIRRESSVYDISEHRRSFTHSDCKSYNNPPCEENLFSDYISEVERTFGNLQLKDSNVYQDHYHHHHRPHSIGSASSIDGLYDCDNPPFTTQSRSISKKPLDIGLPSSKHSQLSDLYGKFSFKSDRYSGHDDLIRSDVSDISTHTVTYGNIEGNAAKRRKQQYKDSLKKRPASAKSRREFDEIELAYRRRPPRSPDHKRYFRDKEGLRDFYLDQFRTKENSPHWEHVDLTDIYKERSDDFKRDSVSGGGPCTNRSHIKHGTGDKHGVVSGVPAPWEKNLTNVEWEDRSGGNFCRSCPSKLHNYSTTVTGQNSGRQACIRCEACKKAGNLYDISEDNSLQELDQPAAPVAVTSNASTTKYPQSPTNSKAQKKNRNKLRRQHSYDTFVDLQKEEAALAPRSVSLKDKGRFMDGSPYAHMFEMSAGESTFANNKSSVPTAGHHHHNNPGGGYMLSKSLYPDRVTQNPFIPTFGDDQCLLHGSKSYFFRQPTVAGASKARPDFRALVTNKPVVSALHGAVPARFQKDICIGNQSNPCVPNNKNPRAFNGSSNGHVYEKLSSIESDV

The experiment has as its target T1, Human NMDA (NR1/NR2B) Receptor (Homo sapiens, UniProt Q13224).
T1 construct: host or cells: HEK293
Nature of the experiment: NR2B Ca2+ influx assay. Particulars: 10 μM compound; HEK293 cells expressing GRIN1 and GRIN2B; glutamic acid/glycine-induced Ca2+ influx, Fluo-4 fluorescence; read-out: inhibitory rate (10 μM compound concentration). It counts as cell-based. The source says:
Experimental Example 1 NR2B Ca^2+ Influx Assay
To confirm the “antagonistic action on an NMDA receptor containing the NR2B subunit” of the compound of the present invention, human embryonic kidney cell expressing the “NMDA receptor composed of four subunits including 2 sets of heterodimers of NR1 and NR2B”, specifically HEK293 cell expressing human glutamate ionotropic receptor NMDA type subunit 1 (GRIN1) and human glutamate ionotropic receptor NMDA type subunit 2B (GRIN2B), was used and the activation suppressive effect (inhibitory activity) on the receptors by the compound of the present invention was measured.
HEK293 cells that express GRIN1 and GRIN2B were purchased from ChanTest (Human NMDA (NR1/NR2B) Receptor-expressing, stable replicating cell line (HEK293) catalog No. CT6121).
As an index of the NMDA receptor activation, intracellular calcium ion (Ca^2+) influx caused by the binding of glycine and glutamic acid with NR1 and NR2B, respectively, was used.
HEK293 cells that express GRIN1 and GRIN2B were cultured in a cell culture flask in DMEM/F-12 (COSMO BIO, 10-092-CM) medium added with 10% FBS (fetal bovine serum, AusGene), 100 units/mL penicillin, 100 μg/mL streptomycin, 500 μg/mL neomycin, 100 μg/mL Zeocin (registered trade mark, Invitrogen), 5 μg/mL Blasticidin, in an incubator (37° C., 5% CO2).
The cells were detached from flask with trypsin the day before the assay, suspended in a seeding medium (DMEM (Invitrogen, 31053) added with 10% FBS, 100 units/mL penicillin, 100 μg/mL streptomycin) at 8×10^5 cells/mL, seeded by 25 μL/well in a 384-well plate (Falcon, 356663) at 20000 cells/well, and cultured overnight in an incubator. On the day of the assay, tetracycline (Wako Pure Chemical Industries, Ltd., 209-16561) was diluted with the seeding medium at 2 μg/mL, added at 25 μL/well to the plate seeded with the cells, and cultured for 2 hr in an incubator. Thereafter, the medium was removed, and the cells were washed with 50 μL/well assay buffer (137 mM NaCl, 4 mM KCl, 1.8 mM CaCl2, 10 mM HEPES (pH 7.2), 10 mM Glucose, 0.1% BSA). Then, a loading buffer (assay buffer added with 2.5 μM Fluo-4AM, 2 mM Amaranth, 1 mM Tartrazine) was added at 25 μL/well, and incubation was performed in the incubator for 30 min, and at room temperature for 15 min. A solution (25 μL/well) of the Example compound diluted with the above-mentioned assay buffer at 30 μM (final concentration 10 μM) was added, and the cells were stood for 15 min at room temperature. Using FDSS7000EX/μCELL (Hamamatsu Photonics K.K.), 25 μL/well of an assay buffer containing 30 μM glutamic acid, 30 μM glycine was added, and the fluorescence signal at wavelength of Excitation 480 nm, Emission 540 nm was measured every 3 seconds for 5 min. The inhibitory activity was calculated as a relative activity value (inhibitory rate) that inhibits 100% of the cumulative value of the fluorescence value of a well added with an assay buffer free of glutamic acid, glycine, relative to the cumulative value of the fluorescence value of each well.
Take `CCOc1ncncc1CNC(=O)c1cnc(OC(F)F)c(Cl)c1` [Example 88, 5-chloro-6-(difluoromethoxy)-N-[(4-ethoxypyrimidin-5-yl)methyl]pyridine-3-carboxamide]: the inhibition at 10 µM turned out to be 92%.
The figure for `O=C(NCc1cncnc1C1CC(F)(F)C1)c1cnc(OC(F)F)c(F)c1` [Example 36, N-{[4-(3,3-difluorocyclobutyl)-pyrimidin-5-yl]methyl}-6-(difluoromethoxy)-5-fluoropyridine-3-carboxamide] is 92%; for `COc1ccncc1CNC(=O)c1ccc(C(F)(F)F)c(F)c1` [Example 9, 3-fluoro-N-[(4-methoxypyridin-3-yl)methyl]-4-(trifluoromethyl)benzamide] it is 90%.
The figure for `COc1ncc(C(=O)NCc2cnccc2C)cc1Cl` [Example 66, 5-chloro-6-methoxy-N-[(4-methylpyridin-3-yl)methyl]pyridine-3-carboxamide] is 84%; for `COc1c(F)cc(C(=O)NCc2cncnc2OC2CC2)cc1F` [Example 74, N-{[4-(cyclopropyloxy)-pyrimidin-5-yl]methyl}-3,5-difluoro-4-methoxybenzamide] it is 90%; for `CCc1ncncc1CNC(=O)c1cnc(OC(F)F)c(F)c1` [Example 28, 6-(difluoromethoxy)-N-[(4-ethylpyrimidin-5-yl)methyl]-5-fluoropyridine-3-carboxamide] it is 87%.
The figure for `COc1ccncc1CNC(=O)c1cc(F)c(OC)c(F)c1` [Example 89, 3,5-difluoro-4-methoxy-N-[(4-methoxypyridin-3-yl)methyl]benzamide] is 92%.
Consider `O=C(NCc1cncnc1OC1CC1)c1cnc(OC(F)F)c(F)c1` [Example 19, N-{[4-(cyclopropyloxy)pyrimidin-5-yl]methyl}-6-(difluoromethoxy)-5-fluoropyridine-3-carboxamide], for which the inhibition at 10 µM amounted to 91%.
Turning to `O=C(NCc1cnccc1C1CC1)c1cnc(OC(F)F)c(F)c1` [Example 15, N-[(4-cyclopropylpyridin-3-yl)methyl]-6-(difluoromethoxy)-5-fluoropyridine-3-carboxamide], the inhibition at 10 µM stood at 96%.
The figure for `COc1ncncc1CNC(=O)c1cnc(C2CC2)c(Cl)c1` [Example 83, 5-chloro-6-cyclopropyl-N-[(4-methoxypyrimidin-5-yl)methyl]pyridine-3-carboxamide] is 92%.
With `COc1ncncc1CNC(=O)c1cnc(OC(F)F)c(Cl)c1` [Example 21, 5-chloro-6-(difluoromethoxy)-N-[(4-methoxypyrimidin-5-yl)methyl]pyridine-3-carboxamide] the figure was 93%; with `Cc1ccncc1CNC(=O)c1cnc(C2CC2(F)F)c(Cl)c1` (centres unmarked) [Example 102, 5-chloro-6-(2,2-difluorocyclopropyl)-N-[(4-methylpyridin-3-yl)methyl]pyridine-3-carboxamide], 93%; with `COc1ncncc1CNC(=O)c1cnc(OC(F)(F)F)c(F)c1` [Example 33, 5-fluoro-N-[(4-methoxypyrimidin-5-yl)methyl]-6-(trifluoromethoxy)pyridine-3-carboxamide], 94%.
On to `COc1c(F)cc(C(=O)NCc2cncc(F)c2OC)cc1F` [Example 90, 3,5-difluoro-N-[(5-fluoro-4-methoxypyridin-3-yl)methyl]-4-methoxybenzamide], for which the inhibition at 10 µM was 95%.
The figure for `CCOc1ncc(C(=O)NCc2cnccc2C)cc1Cl` [Example 65, 5-chloro-6-ethoxy-N-[(4-methylpyridin-3-yl)methyl]pyridine-3-carboxamide] is 93%.
With `COc1ncncc1CNC(=O)c1ccc(OC(F)F)c(F)c1` [Example 13, 4-(difluoromethoxy)-3-fluoro-N-[(4-methoxypyrimidin-5-yl)methyl]benzamide] the figure was 93%.
In the case of `Cc1ccncc1CNC(=O)c1cnc(C2CC2)c(F)c1` [Example 46, 6-cyclopropyl-5-fluoro-N-[(4-methylpyridin-3-yl)methyl]pyridine-3-carboxamide], the inhibition at 10 µM turned out to be 95%.
With `COc1ccncc1CNC(=O)c1cnc(OC(F)F)c(Cl)c1` [Example 17, 5-chloro-6-(difluoromethoxy)-N-[(4-methoxypyridin-3-yl)methyl]pyridine-3-carboxamide] the figure was 98%.
With `CCc1ccncc1CNC(=O)c1cnc(OC(F)F)c(F)c1` [Example 38, 6-(difluoromethoxy)-N-[(4-ethylpyridin-3-yl)methyl]-5-fluoropyridine-3-carboxamide] the figure was 94%.
The figure for `Cc1ccncc1CNC(=O)c1ccc(OC(F)F)cc1` [Example 50, 4-(difluoromethoxy)-N-[(4-methylpyridin-3-yl)methyl]benzamide] is 90%; for `CCc1c(F)cncc1CNC(=O)c1cnc(OC(F)F)c(F)c1` [Example 41, 6-(difluoromethoxy)-N-[(4-ethyl-5-fluoropyridin-3-yl)methyl]-5-fluoropyridine-3-carboxamide] it is 94%; for `Cc1c(Cl)cncc1CNC(=O)c1cnc(OC(F)F)c(F)c1` [Example 47, N-[(5-chloro-4-methylpyridin-3-yl)methyl]-6-(difluoromethoxy)-5-fluoropyridine-3-carboxamide] it is 97%.
For `O=C(NCc1cncnc1C1CC1(F)F)c1cnc(OC(F)F)c(F)c1` (centres unmarked) [Example 37, N-{[4-(2,2-difluorocyclopropyl)-pyrimidin-5-yl]methyl}-6-(difluoromethoxy)-5-fluoropyridine-3-carboxamide], the inhibition at 10 µM is 84%.
Consider `Cc1c(F)cncc1CNC(=O)c1cc(F)c(OC(F)F)c(F)c1` [Example 68, 4-(difluoromethoxy)-3,5-difluoro-N-[(5-fluoro-4-methylpyridin-3-yl)methyl]benzamide], for which the inhibition at 10 µM was 93%.
The figure for `COc1ncc(C(=O)NCc2cnccc2C)cc1F` [Example 44, 5-fluoro-6-methoxy-N-[(4-methylpyridin-3-yl)methyl]pyridine-3-carboxamide] is 79%; for `Cc1ncncc1CNC(=O)c1ccc(OC(F)(F)F)c(F)c1` [Example 30, 3-fluoro-N-[(4-methylpyrimidin-5-yl)methyl]-4-(trifluoromethoxy)-benzamide] it is 92%.
For `O=C(NCc1cnccc1OC(F)F)c1cnc(OC(F)F)c(Cl)c1` [Example 111, 5-chloro-6-(difluoromethoxy)-N-[(4-(difluoromethoxy)pyridin-3-yl)methyl]pyridine-3-carboxamide], the inhibition at 10 µM worked out at 94%.
As for `Cc1ccncc1CNC(=O)c1cnc(C(F)(F)F)c(Cl)c1` [Example 52, 5-chloro-N-[(4-methylpyridin-3-yl)methyl]-6-(trifluoromethyl)pyridine-3-carboxamide], the inhibition at 10 µM is 83%.
For the molecule `CC(C)Oc1ncncc1CNC(=O)c1cnc(OC(F)F)c(F)c1` [Example 20, 6-(difluoromethoxy)-5-fluoro-N-({4-[(propan-2-yl)oxy]pyrimidin-5-yl}methyl)pyridine-3-carboxamide], the inhibition at 10 µM was found to be 94%.
`CCOc1ccncc1CNC(=O)c1cnc(OC(F)F)c(F)c1` [Example 10, 6-(difluoromethoxy)-N-[(4-ethoxypyridin-3-yl)methyl]-5-fluoropyridine-3-carboxamide]: the inhibition at 10 µM worked out at 96%.
With `Cc1ccncc1CNC(=O)c1csc(C(F)F)c1` [Example 100, 5-(difluoromethyl)-N-[(4-methylpyridin-3-yl)methyl]thiophene-3-carboxamide] the figure was 72%.
With `COc1ccncc1CNC(=O)c1ccc(OC(F)(F)F)c(F)c1` [Example 8, 3-fluoro-N-[(4-methoxypyridin-3-yl)methyl]-4-(trifluoromethoxy)-benzamide], the inhibition at 10 µM was found to be 95%.
